# Measurements as given in ChEMBL document CHEMBL1201862, “PubChem BioAssay data set” (2004).
# Activity calls are given as the source filed them.
# Tests used:
# Hexokinase HKDC1 = Hexokinase HKDC1 (Homo sapiens, UniProt Q2TB90); experiment: activation of HKDC1 glucose phosphorylation – biochemical, W721R variant, dose response (AID 504730); assay type: functional
# Hexokinase-1 = Hexokinase-1 (Homo sapiens, UniProt P19367); experiment: HK1 enzyme activation by HKDC1 hits – biochemical, selectivity assay for HKDC1 activator project, dose response (AID 504762); assay type: functional
# [1] = target: T1, High affinity choline transporter 1 (Homo sapiens, UniProt Q9GZV3); experiment: human choline transporter blockers, potency – cell-based, 5-point CRC, membrane potential dye, dose response (AID 504840); assay type: functional
# T1 sequence (Q9GZV3 whole entry): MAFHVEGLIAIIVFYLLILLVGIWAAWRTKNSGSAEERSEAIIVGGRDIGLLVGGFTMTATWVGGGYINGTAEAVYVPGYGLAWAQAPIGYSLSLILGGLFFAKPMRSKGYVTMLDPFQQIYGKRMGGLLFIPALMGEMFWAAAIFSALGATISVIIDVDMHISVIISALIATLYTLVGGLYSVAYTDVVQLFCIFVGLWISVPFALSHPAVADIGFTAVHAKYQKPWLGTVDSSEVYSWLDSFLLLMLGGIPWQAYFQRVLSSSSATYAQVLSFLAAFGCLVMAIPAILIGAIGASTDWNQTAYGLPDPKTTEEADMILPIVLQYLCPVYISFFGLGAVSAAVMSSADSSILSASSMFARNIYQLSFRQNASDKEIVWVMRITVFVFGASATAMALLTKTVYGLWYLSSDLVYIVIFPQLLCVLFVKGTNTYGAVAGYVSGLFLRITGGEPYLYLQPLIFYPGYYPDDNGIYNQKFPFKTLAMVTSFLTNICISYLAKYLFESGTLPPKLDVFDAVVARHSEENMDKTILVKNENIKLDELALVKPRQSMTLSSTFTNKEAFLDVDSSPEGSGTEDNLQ
# Mucolipin-3 = Mucolipin-3 (Homo sapiens, UniProt Q8TDD5); experiment: Fluorescence counterscreen assay for […] agonists: dose response cell-based high-throughput screening assay to identify agonists of the transient receptor potential channel ML3 (TRPML3). [Related pubchem assays: 1424, 1448 ]; assay type: functional
# Ion channel NompC = Ion channel NompC (Danio rerio, UniProt Q7T1G6); experiment: Dose response cell-based high-throughput screening assay for agonists of the transient receptor potential channel N1 (TRPN1). [Related pubchem assays (depositor defined):AID1424, AID1448]; assay type: functional
# [2] = target: Sphingosine 1-phosphate receptor 1 (Homo sapiens, UniProt P21453); experiment: Fluorescence-based counterscreen assay for S1P4 agonists: Cell-based dose response high throughput screening assay to identify agonists of the Sphingosine 1-Phosphate Receptor 1 (S1P1). [Related pubchem assays (depositor defined):AID1509, AID1523, AID1801, AID463107, AID463118, AID463119, AID463122, AID463123, AID463129, AID463225, AID504400, AID504460]; assay type: functional
# [3] = target: Sphingosine 1-phosphate receptor 4 (Homo sapiens, UniProt O95977); experiment: Fluorescence dose response cell-based high throughput screening assay for agonists of the Sphingosine 1-Phosphate Receptor 4 (S1P4). [Related pubchem assays: 1509 (Primary screen.), 1523 (Confirmation screen in triplicates.)]; assay type: functional
# [4] = target: T2, Tyrosine-protein phosphatase non-receptor type 7 (Homo sapiens, UniProt P35236); experiment: HePTP tyrosine phosphatase activity blockers – biochemical, absorbance, leukemia target, primary screen (AID 521); assay type: functional
# T2 sequence (P35236 whole entry): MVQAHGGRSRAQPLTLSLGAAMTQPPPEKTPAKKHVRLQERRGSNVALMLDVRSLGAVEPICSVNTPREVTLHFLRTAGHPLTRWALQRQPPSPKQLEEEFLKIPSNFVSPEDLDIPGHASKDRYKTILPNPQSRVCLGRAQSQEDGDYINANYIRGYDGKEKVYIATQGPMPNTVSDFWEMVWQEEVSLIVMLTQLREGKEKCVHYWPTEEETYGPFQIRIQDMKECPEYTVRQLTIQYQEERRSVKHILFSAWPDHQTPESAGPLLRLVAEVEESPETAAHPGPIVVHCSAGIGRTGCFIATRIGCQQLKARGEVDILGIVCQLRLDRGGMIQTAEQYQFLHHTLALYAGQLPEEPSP
# [5] = target: T2, Tyrosine-protein phosphatase non-receptor type 7; assay type: functional
# [6] = target: T3, Tyrosine-protein phosphatase non-receptor type 22 (Homo sapiens, UniProt Q9Y2R2); assay type: functional
# [7] = target: T4, Dual specificity protein phosphatase 3 (Homo sapiens, UniProt P51452); experiment: VHR1 phosphatase inhibitors, biochemical (AID 1878)
# [8] = target: T3, Tyrosine-protein phosphatase non-receptor type 22; assay type: functional; remark: listed apart in the source
# [9] = DRD fibroblast viability loss – cell-based, non-viral oncogenic, luminescence, dose response (AID 1934); assay type: functional; conditions: Homo sapiens
# [10] = target: T4, Dual specificity protein phosphatase 3; experiment: VHR1 phosphatase inhibitors, primary screen, biochemical, absorbance, uHTS (AID 1654)
# [11] = target: Heat shock protein HSP 90-alpha (Homo sapiens, UniProt P07900); assay type: functional, organism-based
# BJ [12] = experiment: cells; assay type: functional, cell-based; conditions: Homo sapiens
# BJ [13] = experiment: growth inhibition of engineered Ras-driven BJ cells – cell-based, alamar blue fluorescence, cherrypicked samples, dose response (AID 2631); assay type: functional; conditions: Homo sapiens;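 further: confirmatory dose-response assay in RAS-dependent BJ fibroblasts engineered with TERT, LT and ST, with cytotoxicity read by fluorescence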
# BJ [14] = experiment: BJ-TERT-LT-ST fibroblast viability loss – cell-based, RAS-independent, luminescence, dose response (AID 1935); assay type: functional; conditions: Homo sapiens;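 further: BJ fibroblasts immortalized with TERT plus LT and ST oncogenes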
# [15] = target: T5, Dual specificity protein phosphatase 6 (Rattus norvegicus, UniProt Q64346); experiment: inhibition of rat DUSP6 enzyme activity – biochemical, in vitro, primary screen (AID 425)
# T5 sequence (Q64346 whole entry): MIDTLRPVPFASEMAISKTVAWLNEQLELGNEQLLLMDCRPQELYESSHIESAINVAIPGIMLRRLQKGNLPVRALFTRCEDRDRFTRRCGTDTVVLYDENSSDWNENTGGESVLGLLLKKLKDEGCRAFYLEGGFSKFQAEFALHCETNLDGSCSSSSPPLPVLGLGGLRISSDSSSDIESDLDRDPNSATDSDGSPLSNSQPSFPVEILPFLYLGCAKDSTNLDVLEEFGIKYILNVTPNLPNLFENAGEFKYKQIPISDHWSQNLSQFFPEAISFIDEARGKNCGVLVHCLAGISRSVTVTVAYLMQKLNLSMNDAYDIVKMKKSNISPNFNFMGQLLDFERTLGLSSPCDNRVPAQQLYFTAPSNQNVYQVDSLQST
# BJ [16] = experiment: BJ-TERT fibroblast viability loss – cell-based, RAS-independent, luminescence, dose response (AID 1933); assay type: functional; conditions: Homo sapiens
# T3 sequence (Q9Y2R2 whole entry): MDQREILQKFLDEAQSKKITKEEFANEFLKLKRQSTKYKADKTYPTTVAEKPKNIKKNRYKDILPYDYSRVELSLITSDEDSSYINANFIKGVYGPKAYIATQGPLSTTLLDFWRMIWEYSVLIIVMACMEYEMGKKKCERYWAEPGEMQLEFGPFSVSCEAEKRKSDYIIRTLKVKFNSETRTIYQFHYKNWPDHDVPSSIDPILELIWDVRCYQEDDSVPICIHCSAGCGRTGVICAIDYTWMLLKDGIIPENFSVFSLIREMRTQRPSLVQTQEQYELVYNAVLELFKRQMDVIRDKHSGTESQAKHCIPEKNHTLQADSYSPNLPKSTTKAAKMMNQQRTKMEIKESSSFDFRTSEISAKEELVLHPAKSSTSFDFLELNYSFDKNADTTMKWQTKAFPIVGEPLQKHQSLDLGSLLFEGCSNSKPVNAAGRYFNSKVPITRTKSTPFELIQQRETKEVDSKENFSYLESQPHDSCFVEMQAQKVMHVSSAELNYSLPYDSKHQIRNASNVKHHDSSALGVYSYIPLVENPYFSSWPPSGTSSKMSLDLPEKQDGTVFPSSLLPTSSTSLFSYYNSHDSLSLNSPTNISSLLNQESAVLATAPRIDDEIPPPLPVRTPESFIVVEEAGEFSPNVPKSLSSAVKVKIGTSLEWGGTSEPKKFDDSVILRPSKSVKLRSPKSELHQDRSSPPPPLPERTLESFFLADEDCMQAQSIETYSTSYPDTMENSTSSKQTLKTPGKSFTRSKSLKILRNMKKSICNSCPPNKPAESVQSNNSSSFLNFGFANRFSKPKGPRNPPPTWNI
# T4 sequence (P51452 whole entry): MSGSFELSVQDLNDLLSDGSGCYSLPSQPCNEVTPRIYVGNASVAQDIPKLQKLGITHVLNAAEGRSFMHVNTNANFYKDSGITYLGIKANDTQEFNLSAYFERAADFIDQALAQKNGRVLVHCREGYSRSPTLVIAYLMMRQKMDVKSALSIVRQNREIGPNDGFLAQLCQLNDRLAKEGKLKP
# Hexokinase HKDC1, sequence (Q2TB90 whole entry): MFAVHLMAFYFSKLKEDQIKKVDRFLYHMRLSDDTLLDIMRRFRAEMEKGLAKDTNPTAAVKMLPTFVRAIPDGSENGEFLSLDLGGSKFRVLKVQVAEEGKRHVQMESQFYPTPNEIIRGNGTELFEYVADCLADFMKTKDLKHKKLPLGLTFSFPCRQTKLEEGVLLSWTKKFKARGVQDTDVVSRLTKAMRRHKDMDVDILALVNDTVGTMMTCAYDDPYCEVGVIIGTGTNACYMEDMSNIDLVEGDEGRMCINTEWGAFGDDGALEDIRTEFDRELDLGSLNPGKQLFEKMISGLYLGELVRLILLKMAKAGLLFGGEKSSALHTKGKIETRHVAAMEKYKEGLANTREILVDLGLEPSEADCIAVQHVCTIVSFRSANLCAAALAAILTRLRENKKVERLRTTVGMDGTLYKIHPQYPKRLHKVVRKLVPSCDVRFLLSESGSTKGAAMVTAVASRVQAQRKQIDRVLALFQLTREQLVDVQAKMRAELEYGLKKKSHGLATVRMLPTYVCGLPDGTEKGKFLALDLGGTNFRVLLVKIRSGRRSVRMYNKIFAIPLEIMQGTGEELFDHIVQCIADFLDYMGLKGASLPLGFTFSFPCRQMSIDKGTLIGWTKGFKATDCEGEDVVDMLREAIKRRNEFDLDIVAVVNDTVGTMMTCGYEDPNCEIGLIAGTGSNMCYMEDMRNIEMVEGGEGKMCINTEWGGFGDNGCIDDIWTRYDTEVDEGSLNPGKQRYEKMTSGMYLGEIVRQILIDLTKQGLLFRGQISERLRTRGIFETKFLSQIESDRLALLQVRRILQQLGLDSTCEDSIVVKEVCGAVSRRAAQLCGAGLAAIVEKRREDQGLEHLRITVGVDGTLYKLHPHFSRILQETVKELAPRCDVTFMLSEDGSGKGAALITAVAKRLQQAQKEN
# Mucolipin-3, sequence (Q8TDD5 whole entry): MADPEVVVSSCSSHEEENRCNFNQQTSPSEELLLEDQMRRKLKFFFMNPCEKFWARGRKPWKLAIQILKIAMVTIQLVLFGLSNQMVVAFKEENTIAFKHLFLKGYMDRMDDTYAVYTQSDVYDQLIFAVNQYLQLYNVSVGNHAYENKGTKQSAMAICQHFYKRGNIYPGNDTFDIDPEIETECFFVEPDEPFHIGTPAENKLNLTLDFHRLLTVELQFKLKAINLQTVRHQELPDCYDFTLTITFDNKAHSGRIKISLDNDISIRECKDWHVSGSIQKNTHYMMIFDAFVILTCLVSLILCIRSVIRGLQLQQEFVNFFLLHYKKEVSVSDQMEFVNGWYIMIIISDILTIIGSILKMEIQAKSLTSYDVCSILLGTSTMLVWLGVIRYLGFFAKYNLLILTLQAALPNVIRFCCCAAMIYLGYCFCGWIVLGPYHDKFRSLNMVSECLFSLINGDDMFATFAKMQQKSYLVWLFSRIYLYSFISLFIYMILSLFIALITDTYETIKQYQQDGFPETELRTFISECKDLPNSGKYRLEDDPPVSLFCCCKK
# Ion channel NompC, sequence (Q7T1G6 whole entry): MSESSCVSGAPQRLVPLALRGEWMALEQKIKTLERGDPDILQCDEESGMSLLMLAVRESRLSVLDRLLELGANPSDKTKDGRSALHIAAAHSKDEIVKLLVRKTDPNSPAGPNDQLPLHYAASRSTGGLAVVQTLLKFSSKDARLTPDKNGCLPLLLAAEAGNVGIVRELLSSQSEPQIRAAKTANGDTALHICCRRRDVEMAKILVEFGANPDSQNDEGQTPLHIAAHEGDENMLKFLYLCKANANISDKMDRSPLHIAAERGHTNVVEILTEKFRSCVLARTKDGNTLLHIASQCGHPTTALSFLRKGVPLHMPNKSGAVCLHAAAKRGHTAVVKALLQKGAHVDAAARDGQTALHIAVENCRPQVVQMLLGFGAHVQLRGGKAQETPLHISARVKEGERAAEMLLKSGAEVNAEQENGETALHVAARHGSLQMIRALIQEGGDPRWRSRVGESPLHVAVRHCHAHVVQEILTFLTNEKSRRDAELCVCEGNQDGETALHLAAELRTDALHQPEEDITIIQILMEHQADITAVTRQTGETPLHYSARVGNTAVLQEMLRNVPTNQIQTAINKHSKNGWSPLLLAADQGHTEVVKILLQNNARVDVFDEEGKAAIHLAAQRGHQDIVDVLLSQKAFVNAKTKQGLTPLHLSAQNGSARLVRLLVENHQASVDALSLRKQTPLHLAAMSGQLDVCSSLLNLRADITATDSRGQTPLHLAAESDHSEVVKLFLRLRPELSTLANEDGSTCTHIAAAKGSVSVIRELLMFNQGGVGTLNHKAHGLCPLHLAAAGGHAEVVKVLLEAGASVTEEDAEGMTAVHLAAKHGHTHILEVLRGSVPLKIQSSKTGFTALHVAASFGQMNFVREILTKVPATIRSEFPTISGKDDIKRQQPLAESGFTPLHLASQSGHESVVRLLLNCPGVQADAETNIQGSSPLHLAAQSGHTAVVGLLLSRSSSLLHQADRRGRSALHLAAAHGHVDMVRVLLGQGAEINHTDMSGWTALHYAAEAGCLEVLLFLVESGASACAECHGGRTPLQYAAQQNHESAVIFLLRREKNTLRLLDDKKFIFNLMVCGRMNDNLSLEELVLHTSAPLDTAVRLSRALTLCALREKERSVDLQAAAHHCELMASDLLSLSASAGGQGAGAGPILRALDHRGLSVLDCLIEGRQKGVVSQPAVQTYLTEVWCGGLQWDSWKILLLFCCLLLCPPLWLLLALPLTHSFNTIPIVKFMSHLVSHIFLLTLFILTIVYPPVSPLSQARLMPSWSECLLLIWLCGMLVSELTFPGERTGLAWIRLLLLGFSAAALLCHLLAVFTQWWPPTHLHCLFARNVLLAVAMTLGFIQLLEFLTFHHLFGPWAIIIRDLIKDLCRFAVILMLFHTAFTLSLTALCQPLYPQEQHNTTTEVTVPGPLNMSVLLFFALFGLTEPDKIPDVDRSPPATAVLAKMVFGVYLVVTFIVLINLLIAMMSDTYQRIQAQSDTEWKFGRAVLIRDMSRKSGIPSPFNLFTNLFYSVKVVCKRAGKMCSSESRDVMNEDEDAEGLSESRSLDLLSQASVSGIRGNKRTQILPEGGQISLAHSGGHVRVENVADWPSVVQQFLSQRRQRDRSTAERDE
# Hexokinase-1, sequence (P19367 whole entry): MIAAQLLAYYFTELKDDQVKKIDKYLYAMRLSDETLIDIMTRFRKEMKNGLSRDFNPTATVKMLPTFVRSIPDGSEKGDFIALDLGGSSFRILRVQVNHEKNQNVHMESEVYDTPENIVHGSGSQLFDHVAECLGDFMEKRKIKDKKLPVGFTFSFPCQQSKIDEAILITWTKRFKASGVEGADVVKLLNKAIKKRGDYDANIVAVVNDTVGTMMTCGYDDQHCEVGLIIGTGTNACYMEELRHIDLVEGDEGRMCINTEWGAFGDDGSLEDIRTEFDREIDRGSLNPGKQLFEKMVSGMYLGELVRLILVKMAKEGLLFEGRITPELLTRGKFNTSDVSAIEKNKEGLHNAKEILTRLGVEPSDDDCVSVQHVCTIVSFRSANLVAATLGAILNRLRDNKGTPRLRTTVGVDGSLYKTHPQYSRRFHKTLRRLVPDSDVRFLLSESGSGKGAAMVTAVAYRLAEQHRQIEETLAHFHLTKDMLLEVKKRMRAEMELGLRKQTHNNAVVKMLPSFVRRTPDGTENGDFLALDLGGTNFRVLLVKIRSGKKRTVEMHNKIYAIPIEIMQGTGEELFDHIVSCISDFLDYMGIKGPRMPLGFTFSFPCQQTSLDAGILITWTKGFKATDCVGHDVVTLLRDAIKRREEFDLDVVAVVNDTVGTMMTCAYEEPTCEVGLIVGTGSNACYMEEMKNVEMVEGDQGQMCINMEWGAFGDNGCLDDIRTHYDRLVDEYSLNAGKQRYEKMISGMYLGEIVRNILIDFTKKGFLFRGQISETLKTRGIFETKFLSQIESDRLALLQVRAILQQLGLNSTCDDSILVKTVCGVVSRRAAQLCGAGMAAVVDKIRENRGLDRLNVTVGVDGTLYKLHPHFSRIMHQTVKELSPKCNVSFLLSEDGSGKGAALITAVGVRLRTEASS
smiles,measurement,setting,value
CSc1nc(N)nc2c1ncn2CC(=O)N[C@H](C)c1cccc2ccccc12,EC50,Hexokinase HKDC1,9.1 µM (active)
same,EC50,Hexokinase-1,11.8 µM (active)
CC(C)(C)S(=O)(=O)/C(C#N)=N/Nc1ccc(Cl)cc1,IC50,[1],1.32 µM (active)
same,EC50,Mucolipin-3,> 29.9 µM (not active)
same,EC50,Ion channel NompC,> 29.9 µM (inactive)
NC(=S)c1cc2ccc(O)cc2oc1=O,EC50,[2],52.9 µM (inactive)
same,EC50,[3],7.68 µM (active)
O=C(c1cccs1)c1no[n+]([O-])c1C(=O)c1cccs1,IC50,[4],> 100 µM (not active)
same,IC50,[5],4.5 µM (active)
same,IC50,[6],< 1.24 µM (active)
same,IC50,[7],7.48 µM (active)
same,IC50,[8],2.39 µM (active)
same,EC50,[9],2.78 µM (inconclusive)
same,IC50,[10],< 0.98 µM (inactive)
same,AC50,[11],3.5 µM (active)
same,EC50,BJ [12],3.58 µM (active)
same,EC50,BJ [13],3.9 µM (inconclusive)
same,EC50,BJ [14],7.28 µM (inconclusive)
same,IC50,[15],141 µM (not active)
same,EC50,BJ [16],0.803 µM (active)
